Among the test systems are K562; NCI-H522; HCT-116; SNB-19; HL-60; UO-31; NCI-H226; OVCAR-4; SF-539; NCI/ADR-RES; ACHN; KM12; IGROV-1; RPMI-8226; SK-MEL-5; CCRF-CEM; OVCAR-8; MOLT-4; NCI-H23; HOP-62.
Common to all, as to test: DTP human tumour cell line panel, 48 h

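Assay format: 96-well plates, 48-hour exposure. GI50: concentration for 50% inhibition of growth.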 Active and inactive are the calls of the source. Rule as the data show it: active = GI50 up to about 1.1 µM and inactive = higher.

For `O=C1OCC(CN2CCC(n3c(=O)[nH]c4ccccc43)CC2)=C1c1ccccc1`, the GI50 in the experiment on K562 is 14.9 µM (inactive); with NCI-H522, 19.2 µM (inactive); in the experiment with HCT-116, 25.5 µM (inactive); with SNB-19, 26.1 µM (inactive); in the experiment on HL-60 it was 15.5 µM (inactive); in the experiment on UO-31 it was 11.5 µM (inactive). In addition, the GI50 in the experiment on NCI-H226 is 25.4 µM (inactive); in the experiment on OVCAR-4, 18.7 µM (inactive); with SF-539 it was 18.9 µM (inactive); in the experiment on NCI/ADR-RES it was 22.5 µM (inactive); with ACHN, 29.4 µM (inactive); in the experiment with KM12, 16.3 µM (inactive). Besides, the GI50 was 22.2 µM (inactive) in the experiment with IGROV-1; 28.8 µM (inactive) with RPMI-8226; 15.3 µM (inactive) in the experiment with SK-MEL-5; 13.7 µM (inactive) in the experiment on CCRF-CEM; 17.1 µM (inactive) in the experiment with OVCAR-8; 22 µM (inactive) in the experiment with MOLT-4. The GI50 with NCI-H23 is 21.2 µM (inactive); in the experiment with HOP-62, 28.5 µM (inactive).

Regarding `Clc1cccc(Cl)c1/C=N/C12CC3CC(CC(C3)C1)C2`, the GI50 in the experiment with K562, with NCI-H522, in the experiment on HCT-116, in the experiment on SNB-19, with HL-60 and in the experiment on NCI-H226 was > 10 µM (inactive) throughout. For the same molecule, the GI50 with OVCAR-4, in the experiment with SF-539, with NCI/ADR-RES, in the experiment on ACHN, in the experiment on KM12 and in the experiment with IGROV-1 was > 10 µM (inactive) throughout. In addition, the GI50 with RPMI-8226, in the experiment with SK-MEL-5, with CCRF-CEM, in the experiment with OVCAR-8, in the experiment with MOLT-4 and in the experiment with NCI-H23 was > 10 µM (inactive) each time. Moreover, the GI50 with HOP-62 is > 10 µM (inactive).

Turning to `OC(c1ccccc1)c1c(-c2ccccc2)oc(-c2ccccc2)c1C(O)c1ccccc1` (stereo unspecified), the GI50 in the experiment on K562 is 3.58 µM (inactive); in the experiment on NCI-H522 it was 3.15 µM (inactive); in the experiment on HCT-116, 5.65 µM (inactive); in the experiment on SNB-19, 14.8 µM (inactive); with HL-60, 3.26 µM (inactive); in the experiment on UO-31, 10.6 µM (inactive). The GI50 in the experiment with NCI-H226 is 7.4 µM (inactive); in the experiment on OVCAR-4 it was < 0.01 µM (active); in the experiment on SF-539 it was 16.7 µM (inactive); in the experiment with NCI/ADR-RES, 9.02 µM (inactive); with ACHN, 6.14 µM (inactive); in the experiment on KM12, 7.24 µM (inactive). The GI50 was 14 µM (inactive) in the experiment with IGROV-1; 2.72 µM (inactive) with RPMI-8226; 11.4 µM (inactive) in the experiment on SK-MEL-5; 3.73 µM (inactive) with CCRF-CEM; 5.06 µM (inactive) in the experiment with MOLT-4; 9.06 µM (inactive) in the experiment on NCI-H23. Besides, in the experiment with HOP-62, the GI50 is 14.4 µM (inactive).

Consider `Sc1nn2c(COc3cccc(OCc4nnc5sc(S)nn45)c3)nnc2s1`, for which the GI50 with K562 is 7.89 µM (inactive); in the experiment with NCI-H522 it was 64.6 µM (inactive); in the experiment with HCT-116, > 100 µM (inactive); in the experiment on SNB-19 it was > 100 µM (inactive); in the experiment with HL-60, 7.08 µM (inactive); with UO-31 it was > 100 µM (inactive). Also, the GI50 with NCI-H226 is > 100 µM (inactive); in the experiment with OVCAR-4, > 100 µM (inactive); with SF-539 it was 52.1 µM (inactive); with NCI/ADR-RES, > 100 µM (inactive); with ACHN it was > 100 µM (inactive); with KM12, > 100 µM (inactive). The GI50 is > 100 µM (inactive) with IGROV-1; 73.5 µM (inactive) in the experiment on RPMI-8226; 28.2 µM (inactive) with CCRF-CEM; > 100 µM (inactive) in the experiment on OVCAR-8; 2.09 µM (inactive) in the experiment on MOLT-4; > 100 µM (inactive) in the experiment with NCI-H23. In addition, the GI50 in the experiment with HOP-62 is > 100 µM (inactive).

For the molecule `COc1ccc(-n2c(=O)[nH]n(C(C)=O)c2=O)cc1`, the GI50 with K562, in the experiment with NCI-H522, with HCT-116, in the experiment with SNB-19, with HL-60 and in the experiment on UO-31 was > 100 µM (inactive) throughout. Besides, the GI50 in the experiment with NCI-H226, with OVCAR-4, in the experiment with SF-539, in the experiment with NCI/ADR-RES, in the experiment on ACHN and in the experiment on KM12 was > 100 µM (inactive) in each case. The GI50 in the experiment with IGROV-1, in the experiment with RPMI-8226, in the experiment on SK-MEL-5, in the experiment with CCRF-CEM, in the experiment on OVCAR-8 and with MOLT-4 was > 100 µM (inactive) throughout. In the experiment on NCI-H23, the GI50 was > 100 µM (inactive).

Regarding `COc1ccc(C(NCCNC(c2ccc(OC)c(OC)c2)c2cc3c(cc2O)OCO3)c2cc3c(cc2O)OCO3)cc1OC` (stereo unspecified), the GI50 is 1.49 µM (inactive) in the experiment on K562; 1.74 µM (inactive) in the experiment with NCI-H522; 2.26 µM (inactive) in the experiment with HCT-116; 4.06 µM (inactive) in the experiment with SNB-19; 1.71 µM (inactive) in the experiment with HL-60; 2.8 µM (inactive) with UO-31. Besides, the GI50 in the experiment on NCI-H226 was 8.02 µM (inactive); in the experiment with OVCAR-4 it was 4.83 µM (inactive); with SF-539, 2.27 µM (inactive); in the experiment with NCI/ADR-RES, 2.13 µM (inactive); in the experiment on ACHN, 2.64 µM (inactive); in the experiment on KM12, 2.67 µM (inactive). The GI50 in the experiment with IGROV-1 was 2.72 µM (inactive); in the experiment with RPMI-8226, 2 µM (inactive); in the experiment on SK-MEL-5 it was 7.05 µM (inactive); in the experiment with CCRF-CEM it was 0.141 µM (active); with OVCAR-8, 1.89 µM (inactive); with MOLT-4, 0.918 µM (active). Also, the GI50 in the experiment with NCI-H23 is 2.51 µM (inactive); in the experiment on HOP-62, 8.18 µM (inactive).

With `CCOc1cc2c(cc1OC(C)=O)C(=O)CC[C@H]1C3CC[C@H](OC(C)=O)[C@@]3(C)CC[C@H]21` (stereo partly specified), the GI50 in the experiment with K562, in the experiment on NCI-H522, with HCT-116, with SNB-19, in the experiment on HL-60 and with UO-31 was > 100 µM (inactive) throughout. The GI50 in the experiment on NCI-H226, with OVCAR-4, in the experiment with SF-539, in the experiment with NCI/ADR-RES, with ACHN and in the experiment on KM12 was > 100 µM (inactive) in each case. The GI50 in the experiment on RPMI-8226, in the experiment with SK-MEL-5, with CCRF-CEM, in the experiment with OVCAR-8, in the experiment on MOLT-4 and in the experiment on NCI-H23 was > 100 µM (inactive) in each case. Moreover, the GI50 in the experiment on HOP-62 was > 100 µM (inactive).

For the molecule `CN(CCNC(=O)c1nn(-c2ccccc2)c2c1ccc1ccccc12)CCNC(=O)c1nn(-c2ccccc2)c2c1ccc1ccccc12`, the GI50 was 2.04 µM (inactive) in the experiment with NCI-H522; 1.53 µM (inactive) with HCT-116; 2.54 µM (inactive) with SNB-19; 1.95 µM (inactive) with HL-60; 2.07 µM (inactive) in the experiment with UO-31; 2.29 µM (inactive) in the experiment on NCI-H226. Also, the GI50 with OVCAR-4 was 3.39 µM (inactive); in the experiment with SF-539 it was 1.66 µM (inactive); in the experiment on NCI/ADR-RES, 2.55 µM (inactive); in the experiment with ACHN, 2.11 µM (inactive); with KM12 it was 2.37 µM (inactive); with IGROV-1, 1.98 µM (inactive). The GI50 was 0.202 µM (active) in the experiment with RPMI-8226; 1.64 µM (inactive) with SK-MEL-5; 2.9 µM (inactive) in the experiment with CCRF-CEM; 1.79 µM (inactive) with OVCAR-8; 0.38 µM (active) in the experiment with MOLT-4; 2.51 µM (inactive) with NCI-H23. In the experiment on HOP-62, the GI50 is 1.43 µM (inactive).

In the case of `CS(=N)(=O)CCC(N)P(=O)(O)O` (stereo unspecified), the GI50 in the experiment on K562, in the experiment with NCI-H522, in the experiment on HCT-116, in the experiment on SNB-19, in the experiment with HL-60 and in the experiment on UO-31 was > 100 µM (inactive) in each case. The GI50 in the experiment on NCI-H226, with OVCAR-4, in the experiment on SF-539, with NCI/ADR-RES, with ACHN and with KM12 was > 100 µM (inactive) in each case. Besides, the GI50 in the experiment with IGROV-1, in the experiment on RPMI-8226, in the experiment with SK-MEL-5, in the experiment with OVCAR-8, with MOLT-4 and in the experiment with NCI-H23 was > 100 µM (inactive) in each case. Further, in the experiment on HOP-62, the GI50 was > 100 µM (inactive).

For the molecule `COc1ccc(CNNC(=O)c2cc[n+]([BH2-]C#N)cc2)cc1OC`, the GI50 in the experiment with K562, in the experiment with NCI-H522, with HCT-116, in the experiment with SNB-19, in the experiment on HL-60 and with UO-31 was > 100 µM (inactive) throughout. Also, the GI50 in the experiment on NCI-H226, in the experiment with OVCAR-4, in the experiment with SF-539, in the experiment with NCI/ADR-RES, in the experiment with ACHN and with KM12 was > 100 µM (inactive) each time. For the same molecule, the GI50 in the experiment on IGROV-1, in the experiment on RPMI-8226, in the experiment on SK-MEL-5, with CCRF-CEM, in the experiment with OVCAR-8 and with MOLT-4 was > 100 µM (inactive) each time.

The GI50 is the concentration at which growth is held to half of that of the control.
